Consider two compounds from article PMC8223974, “Anti-Cancer and Immunomodulatory Activity of a Polyethylene Glycol-Betulinic Acid Conjugate on Pancreatic Cancer Cells” (Life, 2021).

The IC50 is the concentration needed to halve the response being measured. For orientation: viability means a read-out of living cells in per cent, often relative to untreated cells.

One series has as its system Vero cells. As to the kind of experiment: XTT cytotoxicity assay on Vero cells. Type of series: cell-based. As to conditions: 72 h. The procedure: The cytotoxic effect of BA and PEG–BA was assessed using the 2,3-bis-(2-methoxy-4-nitro-5-sulfophenyl)-2H-tetrazolium-5-carboxanilide (XTT) assay, an improved tetrazolium dye based assay that obviates the solubilisation step [41]. A concentration of 1 × 10^5 cells/mL each of adherent MIA PaCa-2 and Vero cells were seeded into 96-well plates (BD Biosciences, San Diego, California, USA) overnight before treatment with the compounds at concentrations ranging from 0.4 to 100 µM for 72 h. Doxorubicin (0.2 µg/mL) was used as a positive control for cell death assessment and DMSO was used as a vehicle control. After treatment, washed cells (433× g, 5 min, 25 °C) were exposed to 125 µL of complete DMEM containing 25 µL of XTT solution and incubated (37 °C, 5% CO2, 95% humidity) for 4 h. The optical density of the mixture was measured at 450 nm with a background at 690 nm using a Multiskan Ascent 96/384 microplate reader (Labsystem, Vantaa, Finland). Cell viability was determined as a percentage relative to the vehicle control. The IC50 was then calculated using GraphPad Prism 6 (GraphPad Software, Inc, San Diego, CA, USA). […] Statistical significance was calculated using a two-way analysis of variant (ANOVA) and the Bonferroni post-test to compare replicate means in GraphPad Prism 6 (GraphPad Software, Inc, San Diego, CA, USA). […]

For series [1], the system named is MIA PaCa-2 cells. As to the kind of experiment: XTT cytotoxicity assay on MIA PaCa-2 cells. Format: cell-based. As to conditions: 72 h. The procedure:
The cytotoxic effect of BA and PEG–BA was assessed using the 2,3-bis-(2-methoxy-4-nitro-5-sulfophenyl)-2H-tetrazolium-5-carboxanilide (XTT) assay, an improved tetrazolium dye based assay that obviates the solubilisation step [41]. A concentration of 1 × 10^5 cells/mL each of adherent MIA PaCa-2 and Vero cells were seeded into 96-well plates (BD Biosciences, San Diego, California, USA) overnight before treatment with the compounds at concentrations ranging from 0.4 to 100 µM for 72 h. Doxorubicin (0.2 µg/mL) was used as a positive control for cell death assessment and DMSO was used as a vehicle control. After treatment, washed cells (433× g, 5 min, 25 °C) were exposed to 125 µL of complete DMEM containing 25 µL of XTT solution and incubated (37 °C, 5% CO2, 95% humidity) for 4 h. The optical density of the mixture was measured at 450 nm with a background at 690 nm using a Multiskan Ascent 96/384 microplate reader (Labsystem, Vantaa, Finland). Cell viability was determined as a percentage relative to the vehicle control. The IC50 was then calculated using GraphPad Prism 6 (GraphPad Software, Inc, San Diego, CA, USA). The selectivity index (IC50 Vero cells/IC50 MIA PaCa-2) and potentiation factor (PF50) at 50% growth inhibition (IC50) were also determined. The PF50 is the IC50 value of free drug divided by the IC50 value obtained from a combination of drugs, which is the polymer drug conjugate in this case. Statistical significance was calculated using a two-way analysis of variant (ANOVA) and the Bonferroni post-test to compare replicate means in GraphPad Prism 6 (GraphPad Software, Inc, San Diego, CA, USA). A p < 0.05 was considered to be statistically significant.
Background: Formazan colour is commonly taken as a measure of viable cells.

The subject of another series is IL-6. As to the kind of experiment: Cytometric bead array Th1/Th2/Th17, IL-6 in supernatant of PHA-P stimulated PBMCs. Type of series: cell-based, human. As to conditions: 3 µM, 72 h. The procedure: The supernatant obtained from PBMCs (1 × 10^6 cells/mL) treated and incubated (72 h, 37 °C, 5% CO2, 95% humidity) with BA and PEG–BA (3 µM) were used for this assay. Cytotoxicity was performed on isolated PBMCs (see Supplementary Materials for isolation protocol) using the 3-(4,5-dimethylthiazol-2-yl)-2,5-diphenyl tetrazolium bromide (MTT) assay as previously described. For the cytometric bead array (CBA) assay, the PBMCs were isolated from both consenting PC patients (n = 4) and healthy control donors (n = 2). Ethics clearance to collect blood samples was obtained from the Human Research Ethics Committee (Medical) of the University of the Witwatersrand (M170440). The PBMCs were stimulated with 2 µg/mL of phytohaemagglutinin-protein (PHA-P). […]
The CBA Th1/Th2/Th17 assay was performed according to the manufacturer’s instructions (BD Biosciences, La Jolla, San Diego, CA, USA) and as previously described, but with minor modifications. […] Specific fluorescence associated with each bead population was detected using flow cytometry allowing for the identification of the various cytokines in the sample. […] Acquired FCS files were analysed using a flow cytometric analysis software (FCAPArray™) from BD Biosciences. Interferon-gamma (IFN-γ), TNF-α, IL-2, IL-4, IL-6, IL-10 and IL-17A concentrations were all determined from standard curves. […]

For series [2], the system named is peripheral blood mononuclear cells (PBMCs). As to the kind of experiment: MTT cytotoxicity assay on PBMCs. Format: cell-based, human. The settings on record: 3 µM. The procedure: (§1) The supernatant obtained from PBMCs (1 × 10^6 cells/mL) treated and incubated (72 h, 37 °C, 5% CO2, 95% humidity) with BA and PEG–BA (3 µM) were used for this assay. Cytotoxicity was performed on isolated PBMCs (see Supplementary Materials for isolation protocol) using the 3-(4,5-dimethylthiazol-2-yl)-2,5-diphenyl tetrazolium bromide (MTT) assay as previously described. For the cytometric bead array (CBA) assay, the PBMCs were isolated from both consenting PC patients (n = 4) and healthy control donors (n = 2). Ethics clearance to collect blood samples was obtained from the Human Research Ethics Committee (Medical) of the University of the Witwatersrand (M170440). The PBMCs were stimulated with 2 µg/mL of phytohaemagglutinin-protein (PHA-P). After the 72 h incubation period, the cells and medium were transferred to 5 mL Falcon® round-bottom polypropylene tubes and centrifuged at 433× g for 5 min at room temperature. Aliquots of the cell-free supernatant were collected and stored at −80 °C until needed for experiments.

A short description of series [3]: MTT cytotoxicity assay on PBMCs. Type of series: cell-based, human. As to conditions: human, peripheral blood mononuclear cells (PBMCs), n = 4, read-out: PBMC viability. The procedure:
as §1

Series [4] concerns MIA PaCa-2 cells. As to the kind of experiment: Annexin V-FITC / propidium iodide apoptosis detection by flow cytometry. Type of series: cell-based, human. As to conditions: 4 µM, 72 h. The procedure: The mode of cell death induced by the BA and PEG–BA on MIA PaCa-2 and Vero cells was assessed using the Annexin V-FITC Apoptosis kit I (BD Biosciences, San Diego, CA, USA). The assay was performed per the manufacturer’s protocol and as previously described with slight modifications. The cells were analysed for apoptosis and necrosis after acquiring 30,000 events using a BD LSRFortessa™ Analyser (BD Biosciences, San Diego, CA, USA). The BD FACSDiva software was used to detect fluorescein isothiocyanate (FITC) positive signals for apoptotic cells (Annexin-v positive) on a 530/30 filter and peridinin–chlorophyll–protein (PerCP) positive signals for necrotic cells (propidium iodide positive) on a 610/20 band pass filter. Apoptosis was determined at three different concentrations around the IC50, 1, 1.7 and 4 µM. Doxorubicin (0.2 ug/mL) was used as a positive control for apoptosis induction. The data were exported as flow cytometry standard (FCS) files and analysed using FlowJo software Version 10 (FlowJo, LLC, Ashland, OR, USA). The data were exported and represented as means ± standard error of three independent experiments using GraphPad Prism 6.

“And” between values parts separate entries of the source, which are not always exact repeats. Equal values may be shown once.

Take `C=C(C)[C@@H]1CC[C@]2(C(=O)O)CC[C@]3(C)[C@H](CC[C@@H]4[C@@]5(C)CC[C@H](O)C(C)(C)[C@@H]5CC[C@]43C)[C@@H]12` [BA, betulinic acid]: the IC50 is 18.2 ± 0.09 µM with Vero cells (Primates, XTT) and 12.7 ± 0.34 µM with MIA PaCa-2 cells [1] (Homo sapiens, MIA PaCa-2 cells, XTT). The “selectivity index (SI) (IC50 Vero cells/IC50 MIA PaCa-2)” value in the series with MIA PaCa-2 cells [1] (Vero vs MIA PaCa-2, XTT) is 1.4 and 1.43. In addition, the IL-6 concentration in the series with IL-6 (PBMCs of PC patients (n = 4), average) is recorded as 5430.94 pg/mL; in the series with IL-6 (PBMCs of control participants (n = 2)), 396.24 pg/mL. For the same compound, the “cytotoxicity on PBMCs” value in series [2] amounted to 49.2 ± 0.8%. Besides, the viability at 72 h, 3 µM in series [3] worked out at 9.2 ± 0.8%. In the series on MIA PaCa-2 cells [4], the “highest apoptotic effect (mainly late-apoptotic phase)” value turned out to be 31.43 ± 16.7%.

`COc1cccc2c1C(=O)c1c(O)c3c(c(O)c1C2=O)C[C@@](O)(C(=O)CO)C[C@@H]3O[C@H]1C[C@H](N)[C@H](O)[C@H](C)O1` [Doxorubicin]: the “cell death (cytotoxicity)” value with Vero cells (0.2 µg/mL (0.4 µM)) was 43.24 ± 14.2%; in the series on MIA PaCa-2 cells [1] (MIA PaCa-2 cells, 0.2 µg/mL (0.4 µM)), 83.3 ± 1.6%.
